The source of these data is patent publication US8871900B2, “Fibroblast growth factor (FGF) analogs and uses thereof” (University of Rochester, priority 2008, dated 2014).

In assay [1] the test system is proliferating crypts of small intestine. The note with it: comparison stated for native FGFs; cited from earlier work.
The next assay relates to irradiated mice (AGS). The note with it: cited from earlier work; for dose of peak response: AGS, LD50/7 or crypt assay.
For a further assay, the system named is Cdc42, Rac1, Mapk10, Cfl. Put plainly: Gene expression in irradiated BM cells (Luminex multiplex array). Type of assay: cell-based, mouse. The note with it: treatment 20 min after 5 Gy IR, 6 hours, P<0.05.
For a further assay, the system named is FGF receptor. The note with it: cited from earlier work.
The subject of assay [2] is bovine aortic endothelial cells. As to conditions: in vitro; cited from earlier work.
The conditions of assay [3]: in animals; cited from earlier work.
For assay [4], the system named is proliferating crypts of small intestine. Put plainly: Crypt assay of small intestine after sub-TBI (H&E, BrdU, villi length). As to conditions: Balb/c. It is filed as in vivo, mouse (Balb/c, C57BL/6). From the text:
Enhanced proliferation of crypts in small intestine: The epithelium of the small intestine has a rapid turnover, renewing every 3-7 days. The stem cells are located ⅓ of the way up the […] and active mitosis can be seen above growing into the villus and below, forming the crypt. There are no definitive markers available to identify the stem cells, and thus the number of these cells in each crypt are unknown. When the bowel is irradiated, the number of crypts remains constant up to a dose just below the LD50/7. Above that dose, there is a log-linear decrease in the number of crypts, usually measured at 3.5 days. […] Data from the crypt assay can be augmented with injection of BrdU. BrdU can be given to animals at one or more times after irradiation to determine the rate of proliferation and rate of elongation of villi.
FGF-P was then repeated daily for 2 days. At 80 hr post-IR, BrdU (120 mg/kg) was injected ip and 4 hours later (about 3.5 days post-IR), the mice were sacrificed and the duodenal, jejunal and ileal segments (3-4 pieces/segment) were harvested, fixed in formalin, processed in paraffin blocks, cut in transverse sections of the full segment circumference (5 μm thick) and stained with H&E or anti-BrdU following the standard immunochemistry procedure (23). The proliferating crypts were defined as containing 10 or more adjacent chromophilic non-Paneth cells and a lumen. The circumference of a transverse cross-section of the intestine was used as a unit. The number of proliferating crypts was counted in each circumference. At least 10 circumferences were scored per mouse and 4-5 mice were used to generate each data point.
The villi length of duodenum, jejunum and ileum was measured using a customized Imaging Pro program.

A further assay relates to MCP-1, IL-6, TNFα. The assay is described as follows: Plasma inflammatory molecules after sub-TBI (Luminex bead array). It is filed as in vivo, mouse (Balb/c). The note with it: Balb/c, 12 Gy sub-TBI. As for the experimental part: Bead array technology has been developed to facilitate the study of cytokine expression profiles in normal tissues following radiation. Bead arrays have several advantages over ELISA. First, mice have a limited blood volume (0.3-0.4 ml of plasma/mouse). Each ELISA typically requires approximately 0.1 ml and thus only a limited number of assays are possible. Secondly, the time required to perform ELISAs one by one stresses the system in a large experiment and would be difficult to perform in the field in case of a radiological event. The Luminex bead array technology was used. The paired monoclonal antibodies, the highly-purified protein standards, and the more than 50 different cytokinespecific beads were purchased. In these studies, Balb/c mice received 12 Gy sub-TBI and then im injection of vehicle alone (0.2 ml of saline), FGF-P (2 mg/kg at 10 min post-IR and daily for two days), or Amifostine (200 mg/kg, either 30 min before IR, or 10 min after IR). The samples were collected 3.5 days after IR.
All three of these cytokines are associated with increased severity and progression of radiation-related inflammatory toxicity in mouse and man.

A short description of assay [5]: Stool hemoccult score after sub-TBI. It is filed as in vivo, mouse (Balb/c, C57BL/6). The note with it: Balb/c, 12.5 Gy sub-TBI; FGF-P 2 mg/kg im 15 min post irradiation; Amifostine iv 30 min pre-irradiation; P<0.05. The source says: There are commonly employed assays known to be relevant to both mouse and man for determining relative endpoints. These include: 1) stool blood: mucosal barrier breakdown is associated with bleeding of the small bowel; therefore, a hemoccult analysis with a commercial kit (BD Cat #64151) was used in the preliminary data at 3 days after sub-TBI. The time course and frequency of GI bleeding; 2) stool formation: the GI functions of digestion, absorption of nutrition and water, and the regular movement of intestinal muscle are required for formation of normal stool can be measured. All these functions can be upset by radiation. For example, loss of villi leads to decreased fluid absorption and diarrhea. The colon was excised and examined visually for the presence of formed stool at 3.5 days post-IR; 3) endotoximia: bacterial translocation can occur at early times following gastrointestinal radiation exposure.
2) A standard scoring scale was used to evaluate stool formation (diarrhea). The bowel was extracted from the abdomen and visually inspected. Formed stool was easily distinguished from semi-solid and liquid stool as it passed from the ascending to descending colon. FIGS. 7B and 7C show the irradiated bowel in controls compared with FGF-P-treated Balb/c mice. The FGF-P was given at a dose of 2 mg/kg im for three daily doses beginning 15 min after irradiation. […]

Assay [6] in a line: Plasma endotoxin after sub-TBI (tachypleus amebocyte lysate kit). It is filed as in vivo, mouse (Balb/c, C57BL/6). The note with it: Balb/c, 10.5 Gy. As to the method:
Some studies have employed bacterial culture of liver samples. Bacterial translocation occurs due to mucosal barrier changes (1) at the level of the basement membrane and (2) bowel mucous volume and composition. The most reliable and most clinically applicable method to measure bacterial translocation is the endotoxin assay. The level of plasma endotoxin 3.5 days post-IR was measured with a commercialized kit that utilized tachypleus amebocyte lysate to sensitively quantitate endotoxin at extremely low levels (<0.01 EU/ml); and 4) body weight (BW): poor nutrition and water absorption will result in reduced body weight. The rate and severity of weight loss, as well as the pace of body weight recovery, will be measured.
2) A standard scoring scale was used to evaluate stool formation (diarrhea). The bowel was extracted from the abdomen and visually inspected. Formed stool was easily distinguished from semi-solid and liquid stool as it passed from the ascending to descending colon. FIGS. 7B and 7C show the irradiated bowel in controls compared with FGF-P-treated Balb/c mice. The FGF-P was given at a dose of 2 mg/kg im for three daily doses beginning 15 min after irradiation. Animals were sacrificed 3.5 days after 10.5 Gy sub-TBI.

For the molecule “FGF-2: basic fibroblast growth factor, native full length human protein”, the crypt survival result in [1] is “approximately doubles crypt survival”. For the same molecule, in the assay with irradiated mice (AGS), the “dose of peak response” value was “approximately 6 μg/mouse”. Also, the dose with benefit in the assay with irradiated mice (AGS) (human FGF-2 in mice) is 1 μg/mouse. For the same molecule, in the assay with Cdc42, Rac1, Mapk10, Cfl, the “expression of Cdc42” value is listed as “reversed the IR-suppressed expression”, the “expression of Cfl (cofilin 1)” value is given as “suppressed towards normal”, the “expression of Mapk10” value was “suppressed towards normal” and the “expression of Rac1” value is given as “reversed the IR-suppressed expression”.

For “FGF-1: acidic fibroblast growth factor, human protein”, the crypt survival entry in [1] is listed as “approximately doubles crypt survival”. Besides, the “dose of peak response” value with irradiated mice (AGS) was “approximately 6 μg/mouse”.

Consider “RFHSWDCIKTWASDTFVLVCYDDGSEA [F2A3, synthetic peptide that mimics FGF-2]”, for which, in the assay on FGF receptor, the “binding to FGF receptor” value is on record as “equivalent to native bFGF” and the downstream signaling entry is listed as “as effectively as bFGF”. Further, in assay [2], the “cell proliferation and radiation-induced apoptosis” value is “trigger cell proliferation and block radiation-induced apoptosis similar to bFGF”. For the same molecule, in assay [3], the radio-protective effects entry is recorded as “radio-protective effects similar to bFGF”.

Turning to `NCCCNCCSP(=O)(O)O` [Amifostine], the “crypt numbers in the ileum” value is recorded as “no effect when given after irradiation” in assay [4] (12 Gy, Amifostine given after irradiation) and “level of protection matched that obtained for Amifostine” in assay [4] (3.5 days after 12 Gy, Amifostine 200 mg/kg iv 30 min before sub-TBI). The “plasma MCP-1, IL-6 and TNFα” value is listed as “no benefit” in the assay on MCP-1, IL-6, TNFα (Amifostine 200 mg/kg 10 min after IR) and “beneficial response” in the assay with MCP-1, IL-6, TNFα (Amifostine 200 mg/kg 30 min before IR). The stool hemoccult score result in assay [5] is on record as “reduced stool hemoccult score”. This molecule gave a plasma endotoxin level in assay [6] (Amifostine given after irradiation) of 2.87 EU/ml. For the same molecule, the “plasma endotoxin level (mean)” value in assay [6] (Amifostine iv 30 min before IR) came out at 0.93 EU/ml.

With “YRSRKYSSWYVALKR [F2A4, synthetic peptide that mimics FGF-2]”, in the assay on FGF receptor, the “binding to FGF receptor” value is reported as “equivalent to native bFGF” and the downstream signaling entry was “as effectively as bFGF”. The “cell proliferation and radiation-induced apoptosis” value in assay [2] is “trigger cell proliferation and block radiation-induced apoptosis similar to bFGF”. In addition, the radio-protective effects entry in assay [3] is on record as “radio-protective effects similar to bFGF”.
